Assay results published in article PMC7058083, “Structural basis of ligand binding modes at the human formyl peptide receptor 2” (Nature Communications, 2020).

Key:
[1] = system: FPR2 (wild type and mutant V113A); assay: cAMP inhibition assay, HEK293 cells, 5 μM forskolin; format: cell-based, human
Excerpt: contribute to the effect of mutations on ligand binding and receptor signaling in addition to the direct disruption of receptor-ligand interaction.
To make the above clear, the statement “The effect of these mutations on ligand binding and receptor signaling could be explained by direct disruption of the receptor-ligand interaction, destabilization of ligand-binding pocket conformation, and/or impairment of global conformational rearrangement required for receptor activation” has been added to the […]
3) The authors use the crystal structures as an opportunity to dock other ligands with the their experimentally determined structure of FPR2. With the exception of LXA4, the docking of formyl peptides with mutagenesis experiments produce insightful results for fMLFK. For LXA4, more work is necessary to justify the docking pose. Otherwise, it is my opinion that it should […]
— We appreciated the reviewer’s comment. Functional assays for LXA4 are challenging due to the poor ability of this ligand to trigger calcium mobilization and IP accumulation. To verify the predicted binding mode of LXA4 in FPR2, we have performed additional assays by […]
fold while having minimal effect on the LXA4-induced cAMP reduction. […]
model of LXA4. […]
was detected and the concentrations were shown. […]
5) How was the omit map calculated to remove any bias for the agonist in SFig. […]

FPR2 [2] = system: FPR2; parameters: method as in PMID 24285541; conditions: cited from earlier work
Experimental: To investigate the binding mode of formyl peptide in FPR2, molecular docking of this tripeptide to the FPR2 crystal structure was performed (Supplementary Data 2). […] It was also reported that the polar residue D281^7.32 was crucial for the interaction of FPR2 with certain formyl peptides. It was proposed that this negatively charged residue in FPR2 was repulsive with the C-terminal COO− group of fMLF and the negatively charged glutamate residue in fMLFE, but forms a stable interaction with the p ...

FPR2 [3] = system: FPR2; parameters: method as in 3 sources, ref 4 = [4]; PMID 24285541; doi:10.1074/jbc.M113.509216; 4. He HQ Troksa EL Caltabiano G Pardo L Ye RD Structural determinants for the interaction of formyl peptide receptor 2 with peptide ligands J. Biol. Chem. 2014 289 2295 2306 10.1074/jbc.M113.509216 24 ||| ref 34 = [34]; PMID 11818455; 34. Bae YS Kim Y Park JC Suh PG Ryu SH The synthetic chemoattractant peptide, Trp-Lys-Tyr-Met-Val-D-Met, enhances monocyte survival via PKC-dependent Akt activation J. Leukoc. Biol. 2002 71 329 338 11 ||| ref 35 = [35]; PMID 11285256; doi:10.1074/jbc.M007769200; 35. Christophe T The synthetic peptide Trp-Lys-Tyr-Met-Val-Met-NH 2 specifically activates neutrophils through FPRL1/lipoxin A 4 receptors and is an agonist for the orphan monocyte-expressed chemoattr; conditions: cited from earlier work
FPR2 [4] = conditions: cited from earlier work
Excerpt: This movement breaks the hydrogen bonds between the C-terminal NH2- group of the peptide and the receptor residues D106^3.33 and R201^5.38, and disrupts the polar interaction network establishe ...

CCCCC[C@H](O)/C=C/C=C\C=C\C=C\[C@@H](O)[C@@H](O)CCCC(=O)O [LXA4, lipoxin A4]
effect of mutation on ligand-induced cAMP reduction ([1]; FPR2 V113A, 30 min): minimal | change in intracellular cAMP ([1]; wild-type FPR2, 30 min): measurable changes

N-formyl-Met-Leu-Phe [fMLF]
lower binding affinity (FPR2 [2]; FPR2 compared to FPR1): over 400 fold | lower potency in inducing Ca2+ mobilization (FPR2 [3]; FPR2 compared to FPR1): 2000 fold

fMLFII [formyl pentapeptide agonist]
binding affinity over fMLF at FPR2 (FPR2 [2]): increased | agonist potency over fMLF at FPR2 (FPR2 [3]): increased

WKYMVM-NH2
reduction in EC50 in stimulating phosphoinositide hydrolysis relative to WKYMVm (FPR2 [4]): over 100 fold
